Data reported in patent US6461997B1, “Triazole sulfones having herbicidal activity” (Monsanto Technology LLC, priority 1999, dated 2002).

How the values were obtained:
[1] = system: CONAR (field bindweed); assay: Pre-emergence herbicidal activity, warm season; type: in vivo, Convolvulus arvensis; conditions: GR80 = lowest tested rate (300, 100, 30, 10 g/ha) with 80% or greater inhibition; approx. 14 days after treating; 30/21° C.
Procedure: (§1) Tables 5 to 8 summarize results of tests conducted as described below to determine the pre-emergence herbicidal activity, in the form of a GR80 value, of illustrative compounds of this invention. […] Compounds of the invention were typically applied at rates of 300, 100, 30, and 10 g/ha. Where herbicidal activity was evident but 80% inhibition was not achieved at the highest rate tested, an asterisk (*) is shown in the following tables.
(§2) The pre-emergence tests were conducted by the following procedure. Topsoil was sieved to pass through a 1.27 cm screen. Fertilizer was added to the topsoil and the mixture was then sterilized by heating. The topsoil mixture was placed in a pot and compacted to a depth of 1.0 to 1.25 cm from the top of the pot. Seeds of each of several monocotyledonous and dicotyledonous annual plant species were placed on top of the soil. Additional soil was subsequently placed over the seeds to level-fill the pot. A known amount of each test compound dissolved or suspended in an appropriate organic solvent was diluted with a 50:50 mix of acetone and water and applied to the surface of the soil. After treatment the plants were placed in a greenhouse where they received 0.64 cm of overhead irrigation. All subsequent watering consisted of a light overhead mist and/or subirrigation as needed for germination and growth. Tables 5 and 6 below relate to warm season plant species which were placed after pre-emergence treatment in a greenhouse with a 30/21° C. day/night temperature regime. Tables 7 and 8 below relates to cool season plant species placed after pre-emergence treatment in a greenhouse or growth chamber with an 18/13° C. day/night temperature regime.
(§3) Approximately 14 days after planting and treating, the plants were observed and herbicidal efficacy recorded as percent inhibition by comparison with untreated plants.
(§4) The plant species usually regarded as weeds which were utilized in the tests are identified in the tables below according to the following legend, in which “d” indicates a dicotyledonous species and “m” a monocotyledonous species. All monocotyledonous species included in the tests herein are grasses.

[2] = system: SORHA (johnsongrass (seedling)); assay: Pre-emergence herbicidal activity, warm season; type: in vivo, Sorghum halepense; conditions: GR80 = lowest tested rate (300, 100, 30, 10 g/ha) with 80% or greater inhibition; approx. 14 days after treating; 30/21° C.
Outline: (§5)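 Activity is expressed as the rate giving 80% inhibition, with 300, 100, 30 and 10 g/ha typically tested. An asterisk marks activity short of 80% at the top rate. Warm-season grasses were held at 30/21 °C; cool-season blackgrass and wild buckwheat at 18/13 °C; scoring at about 14 days.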

[3] = system: SINAR (wild mustard); assay: Pre-emergence herbicidal activity, cool season; type: in vivo, Sinapis arvensis; conditions: lowest tested rate with 80% or greater inhibition; rates 300, 100, 30, 10 g/ha; about 14 days
Outline: (§6)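 GR80 values derive from percent inhibition relative to untreated plants, read roughly 14 days after sowing and pre-emergence soil-surface treatment (compound in 50:50 acetone/water; rates typically 10, 30, 100, 300 g/ha). Warm-season weeds grew at 30/21° C day/night, cool-season ones at 18/13° C; an asterisk marks activity without reaching 80% at the highest rate.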

[4] = system: AGSST (creeping bentgrass); assay: Pre-emergence herbicidal activity, cool season; type: in vivo, Agrostis stolonifera; conditions: GR80 = lowest tested rate (300, 100, 30, 10 g/ha) with 80% or greater inhibition; approx. 14 days after treating; 18/13° C.
Outline: as §6

[5] = system: SASKR (russian thistle); assay: Pre-emergence herbicidal activity, cool season; type: in vivo, Salsola kali; conditions: lowest tested rate with 80% or greater inhibition; rates 300, 100, 30, 10 g/ha; about 14 days
Outline: as §6

[6] = system: CIRAR (canada thistle (seedling)); assay: Pre-emergence herbicidal activity, warm season; type: in vivo, Cirsium arvense; conditions: GR80 = lowest tested rate (300, 100, 30, 10 g/ha) with 80% or greater inhibition; approx. 14 days after treating; 30/21° C.
Outline: as §6

[7] = system: PANMI (wild proso millet); assay: Pre-emergence herbicidal activity, warm season; type: in vivo, Panicum miliaceum; conditions: GR80 = lowest tested rate (300, 100, 30, 10 g/ha) with 80% or greater inhibition; approx. 14 days after treating; 30/21° C.
Outline: (§7)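 Pre-emergence soil-surface spray; rates 300/100/30/10 g/ha; acetone:water 50:50 diluent. Warm-season species (PANMI, DIGSA) grown at 30/21 °C, cool-season species (ALOMY, POLCO) at 18/13 °C. Inhibition scored ~14 d after treatment versus untreated controls → GR80.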

[8] = system: POLCO (wild buckwheat); assay: Pre-emergence herbicidal activity, cool season; type: in vivo, Polygonum convolvulus; conditions: lowest tested rate with 80% or greater inhibition; rates 300, 100, 30, 10 g/ha; about 14 days
Outline: as §7

[9] = system: POROL (common purslane); assay: Pre-emergence herbicidal activity, warm season; type: in vivo, Portulaca oleracea; conditions: GR80 = lowest tested rate (300, 100, 30, 10 g/ha) with 80% or greater inhibition; approx. 14 days after treating; 30/21° C.
Outline: as §6

[10] = system: ALOMY (blackgrass); assay: Pre-emergence herbicidal activity, cool season; type: in vivo, Alopecurus myosuroides; conditions: GR80 = lowest tested rate (300, 100, 30, 10 g/ha) with 80% or greater inhibition; approx. 14 days after treating; 18/13° C.
Outline: as §7

[11] = system: CHEAL (common lambsquarters); assay: Pre-emergence herbicidal activity, warm season; type: in vivo, Chenopodium album; conditions: GR80 = lowest tested rate (300, 100, 30, 10 g/ha) with 80% or greater inhibition; approx. 14 days after treating; 30/21° C.
Outline: as §6

[12] = system: VERPE (creeping speedwell); assay: Pre-emergence herbicidal activity, cool season; type: in vivo, Veronica persicaria; conditions: lowest tested rate with 80% or greater inhibition; rates 300, 100, 30, 10 g/ha; about 14 days
Outline: as §6

[13] = system: AMARE (redroot pigweed); assay: Pre-emergence herbicidal activity, warm season; type: in vivo, Amaranthus retroflexus; conditions: GR80 = lowest tested rate (300, 100, 30, 10 g/ha) with 80% or greater inhibition; approx. 14 days after treating; 30/21° C.
Outline: as §6

[14] = system: LOLMG (annual ryegrass); assay: Pre-emergence herbicidal activity, cool season; type: in vivo, Lolium multiflorum; conditions: GR80 = lowest tested rate (300, 100, 30, 10 g/ha) with 80% or greater inhibition; approx. 14 days after treating; 18/13° C.
Outline: as §6

[15] = system: SETFA (giant foxtail); assay: Pre-emergence herbicidal activity, warm season; type: in vivo, Setaria faberi; conditions: GR80 = lowest tested rate (300, 100, 30, 10 g/ha) with 80% or greater inhibition; approx. 14 days after treating; 30/21° C.
Outline: as §5

[16] = system: GALAP (catchweed bedstraw); assay: Pre-emergence herbicidal activity, cool season; type: in vivo, Galium aparine; conditions: lowest tested rate with 80% or greater inhibition; rates 300, 100, 30, 10 g/ha; about 14 days
Outline: as §6

[17] = system: DIGSA (large crabgrass); assay: Pre-emergence herbicidal activity, warm season; type: in vivo, Digitaria sanguinalis; conditions: GR80 = lowest tested rate (300, 100, 30, 10 g/ha) with 80% or greater inhibition; approx. 14 days after treating; 30/21° C.
Outline: as §7

[18] = system: STEME (common chickweed); assay: Pre-emergence herbicidal activity, cool season; type: in vivo, Stellaria media; conditions: lowest tested rate with 80% or greater inhibition; rates 300, 100, 30, 10 g/ha; about 14 days
Outline: as §6

[19] = system: LAMPU (purple deadnettle); assay: Pre-emergence herbicidal activity, cool season; type: in vivo, Lamium purpureum; conditions: lowest tested rate with 80% or greater inhibition; rates 300, 100, 30, 10 g/ha; about 14 days
Outline: as §6

[20] = system: AEGCY (jointed goatgrass); assay: Pre-emergence herbicidal activity, cool season; type: in vivo, Aegilops cylindrica; conditions: GR80 = lowest tested rate (300, 100, 30, 10 g/ha) with 80% or greater inhibition; approx. 14 days after treating; 18/13° C.
Procedure: as §1, §2, §3, §4

[21] = system: SETVI (green foxtail); assay: Pre-emergence herbicidal activity, cool season; type: in vivo, Setaria viridis; conditions: GR80 = lowest tested rate (300, 100, 30, 10 g/ha) with 80% or greater inhibition; approx. 14 days after treating; 18/13° C.
Outline: as §6

[22] = system: SORVU (shattercane); assay: Pre-emergence herbicidal activity, warm season; type: in vivo, Sorghum vulgare; conditions: GR80 = lowest tested rate (300, 100, 30, 10 g/ha) with 80% or greater inhibition; approx. 14 days after treating; 30/21° C.
Outline: as §5

[23] = system: BRAPP (broadleaf signalgrass); assay: Pre-emergence herbicidal activity, warm season; type: in vivo, Brachiaria platyphylla; conditions: GR80 = lowest tested rate (300, 100, 30, 10 g/ha) with 80% or greater inhibition; approx. 14 days after treating; 30/21° C.
Outline: as §5

[24] = system: AVEFA (wild oat); assay: Pre-emergence herbicidal activity, cool season; type: in vivo, Avena fatua; conditions: GR80 = lowest tested rate (300, 100, 30, 10 g/ha) with 80% or greater inhibition; approx. 14 days after treating; 18/13° C.
Procedure: as §1, §2, §3, §4

[25] = system: AGRRE (quackgrass (seedling)); assay: Pre-emergence herbicidal activity, cool season; type: in vivo, Elymus repens; conditions: GR80 = lowest tested rate (300, 100, 30, 10 g/ha) with 80% or greater inhibition; approx. 14 days after treating; 18/13° C.
Procedure: as §1, §2, §3, §4

[26] = system: SOLNI (black nightshade); assay: Pre-emergence herbicidal activity, warm season; type: in vivo, Solanum nigrum; conditions: GR80 = lowest tested rate (300, 100, 30, 10 g/ha) with 80% or greater inhibition; approx. 14 days after treating; 30/21° C.
Outline: as §6

[27] = system: ECHCG (barnyardgrass); assay: Pre-emergence herbicidal activity, warm season; type: in vivo, Echinochloa crus-galli; conditions: GR80 = lowest tested rate (300, 100, 30, 10 g/ha) with 80% or greater inhibition; approx. 14 days after treating; 30/21° C.
Outline: as §5

[28] = system: PANDI (fall panicum); assay: Pre-emergence herbicidal activity, warm season; type: in vivo, Panicum dichotomiflorum; conditions: GR80 = lowest tested rate (300, 100, 30, 10 g/ha) with 80% or greater inhibition; approx. 14 days after treating; 30/21° C.
Outline: as §5

O=C(N1CCCC1)n1cnc(S(=O)(=O)C(F)(F)Br)n1 [Example 23, 3-(bromodifluoromethylsulfonyl)-1-(pyrrolidinocarbonyl)-1,2,4-triazole]
Pre-emergence activity (GR80) CONAR [1]: 300 g/ha
Pre-emergence activity (GR80) SORHA [2]: 300 g/ha
Pre-emergence activity GR80, SINAR [3]: 300 g/ha
Pre-emergence activity (GR80) AGSST [4]: 100 g/ha
Pre-emergence activity GR80, SASKR [5]: [empty]
Pre-emergence activity (GR80) CIRAR [6]: 300 g/ha
Pre-emergence activity (GR80) PANMI [7]: 100 g/ha
Pre-emergence activity GR80, POLCO [8]: 30 g/ha
Pre-emergence activity (GR80) POROL [9]: 300 g/ha
Pre-emergence activity (GR80) ALOMY [10]: 300 g/ha
Pre-emergence activity (GR80) CHEAL [11]: 300 g/ha
Pre-emergence activity GR80, VERPE [12]: [empty]
Pre-emergence activity (GR80) AMARE [13]: 300 g/ha
Pre-emergence activity (GR80) LOLMG [14]: 300 g/ha
Pre-emergence activity (GR80) SETFA [15]: 100 g/ha
Pre-emergence activity GR80, GALAP [16]: 300 g/ha
Pre-emergence activity (GR80) DIGSA [17]: 300 g/ha
Pre-emergence activity GR80, STEME [18]: 100 g/ha
Pre-emergence activity GR80, LAMPU [19]: 100 g/ha
Pre-emergence activity (GR80) AEGCY [20]: 300 g/ha
Pre-emergence activity (GR80) SETVI [21]: 100 g/ha

CCCN(CC)C(=O)n1cnc(S(=O)(=O)C(F)(F)SCC)n1 [Example 51]
Pre-emergence activity (GR80) SORVU [22]: 30 g/ha
Pre-emergence activity (GR80) SORHA [2]: 100 g/ha
Pre-emergence activity GR80, SINAR [3]: 10 g/ha
Pre-emergence activity (GR80) AGSST [4]: 10 g/ha
Pre-emergence activity GR80, SASKR [5]: 100 g/ha
Pre-emergence activity (GR80) PANMI [7]: 100 g/ha
Pre-emergence activity GR80, POLCO [8]: 100 g/ha
Pre-emergence activity (GR80) POROL [9]: 300 g/ha
Pre-emergence activity (GR80) ALOMY [10]: 300 g/ha
Pre-emergence activity (GR80) CHEAL [11]: 10 g/ha
Pre-emergence activity GR80, VERPE [12]: 10 g/ha
Pre-emergence activity (GR80) LOLMG [14]: 100 g/ha
Pre-emergence activity (GR80) SETFA [15]: 100 g/ha
Pre-emergence activity (GR80) BRAPP [23]: 100 g/ha
Pre-emergence activity (GR80) AVEFA [24]: 300 g/ha
Pre-emergence activity GR80, GALAP [16]: 100 g/ha
Pre-emergence activity (GR80) DIGSA [17]: 100 g/ha
Pre-emergence activity (GR80) AGRRE [25]: 300 g/ha
Pre-emergence activity GR80, STEME [18]: 10 g/ha
Pre-emergence activity GR80, LAMPU [19]: 10 g/ha
Pre-emergence activity (GR80) SOLNI [26]: 300 g/ha
Pre-emergence activity (GR80) ECHCG [27]: 100 g/ha
Pre-emergence activity (GR80) AEGCY [20]: 300 g/ha
Pre-emergence activity (GR80) PANDI [28]: 100 g/ha
Pre-emergence activity (GR80) SETVI [21]: 100 g/ha
